The values that follow come from US11541055B2, “Inhibitors of human immunodeficiency virus replication” (ViiV Healthcare UK (No. 5) LIMITED, priority 2018, dated 2023).

The subject of series [1] is recombinant NL4-3 virus (Renilla luciferase) in MT-2 cells. The experiment in a line: HIV cell culture assay (antiviral activity, luciferase readout). It counts as cell-based. The following applies: Renilla, NL43. Put shortly:
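MT-2 cells were infected with recombinant NL4-3 virus carrying Renilla luciferase in place of part of nef. Cells were cultured 4–5 days with serially diluted compound, and luciferase was measured with a live-cell substrate. EC50 was calculated from the median effect equation.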

The nature of series [2]: Compound cytotoxicity, XTT-based colorimetric assay. It is filed as cell-based. The following applies: human; uninfected MT2 cells, day 4, XTT. The method in brief: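 Run under the antiviral-assay protocol but without virus. Viability was read on day 4 and CC50 values were derived from the readout.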

As usually defined, the EC50 is the concentration at which the effect is half-maximal. Broadly, the CC50 is the concentration at which the toxic effect on the cells reaches its halfway point. As to `Cc1ccc(-n2c([C@H](Cc3cc(F)cc(F)c3)NC(=O)Cn3nc(C(F)F)c4c3C(F)(F)[C@@H]3C[C@H]43)nc3cc(-c4ccccc4S(=O)(=O)C(C)(C)C)ccc3c2=O)c2c1c(NS(=O)(=O)C1CC1)nn2CC(F)F` (atropisomer, axis not shown) [Example 142, N-[(1S)-1-{3-[3-cyclopropanesulfonamido-1-(2,2-difluoroethyl)-4-methyl-1H-indazol-7-yl]-7-[2-(2-methylpropane-2-sulfonyl)phenyl]-4-oxo-3,4-dihydroquinazolin-2-yl}-2-(3,5-difluorophenyl)ethyl]-2-[(2S,4R)-9-(difluoromethyl)-5,5-difluoro-7,8-diazatricyclo[4.3.0.0^2,^4]nona-1(6),8-dien-7-yl]acetamide], the EC50 in series [1] came to 0.38 nM. The CC50 at 4 days in series [2] was more than 500 nM.

As to `CC(C)(C)S(=O)(=O)c1ccccc1-c1ccc2c(=O)n(-c3ccc(Cl)c4c(NS(=O)(=O)C5CC5)nn(CC(F)F)c34)c([C@H](Cc3cc(F)cc(F)c3)NC(=O)Cn3nc(C(F)F)c4c3C(F)(F)[C@@H]3C[C@H]43)nc2c1` (atropisomer, axis not shown) [Example 143], in series [1], the EC50 stood at 0.28 nM. Further, in series [2], the CC50 at 4 days was more than 500 nM.

For `CN(c1ccccc1-c1ccc2c(=O)n(-c3ccc(Cl)c4c(NS(=O)(=O)C5CC5)nn(CC(F)F)c34)c([C@H](Cc3cc(F)cc(F)c3)NC(=O)Cn3nc(C(F)F)c4c3C(F)(F)[C@@H]3C[C@H]43)nc2c1)S(C)(=O)=O` (atropisomer, axis not shown) [Example 144], the EC50 in series [1] worked out at 0.18 nM. In series [2], this molecule had a cytotoxic concentration (CC50) at 4 days of more than 500 nM.

Turning to `Cc1ccc(-n2c([C@H](Cc3cc(F)cc(F)c3)NC(=O)Cn3nc(C(F)F)c4c3C(F)(F)[C@@H]3C[C@H]43)nc3cc(-c4ccccc4N(C)S(C)(=O)=O)ccc3c2=O)c2c1c(NS(=O)(=O)C1CC1)nn2CC(F)F` (atropisomer, axis not shown) [Example 145, N-[(1S)-1-{3-[3-cyclopropanesulfonamido-1-(2,2-difluoroethyl)-4-methyl-1H-indazol-7-yl]-7-[2-(N-methylmethanesulfonamido)phenyl]-4-oxo-3,4-dihydroquinazolin-2-yl}-2-(3,5-difluorophenyl)ethyl]-2-[(2S,4R)-9-(difluoromethyl)-5,5-difluoro-7,8-diazatricyclo[4.3.0.0^2,^4]nona-1(6),8-dien-7-yl]acetamide], the EC50 in series [1] came to 0.68 nM. The molecule further returned a CC50 at 4 days in series [2] of more than 500 nM.

In the case of `CN(c1ccc(-c2ccc3c(=O)n(-c4ccc(Cl)c5c(NS(=O)(=O)C6CC6)nn(CC(F)F)c45)c([C@H](Cc4cc(F)cc(F)c4)NC(=O)Cn4nc(C(F)F)c5c4C(F)(F)[C@@H]4C[C@H]54)nc3c2)cc1)S(C)(=O)=O` (atropisomer, axis not shown) [Example 147, N-[(1S)-1-{3-[4-chloro-3-cyclopropanesulfonamido-1-(2,2-difluoroethyl)-1H-indazol-7-yl]-7-[4-(N-methylmethanesulfonamido)phenyl]-4-oxo-3,4-dihydroquinazolin-2-yl}-2-(3,5-difluorophenyl)ethyl]-2-[(2S,4R)-9-(difluoromethyl)-5,5-difluoro-7,8-diazatricyclo[4.3.0.0^2,^4]nona-1(6),8-dien-7-yl]acetamide], the EC50 in series [1] was determined as 0.34 nM. In series [2], this molecule returned a CC50 at 4 days of more than 500 nM.

For `CN(c1cccc(-c2ccc3c(=O)n(-c4ccc(Cl)c5c(NS(=O)(=O)C6CC6)nn(CC(F)F)c45)c([C@H](Cc4cc(F)cc(F)c4)NC(=O)Cn4nc(C(F)F)c5c4C(F)(F)[C@@H]4C[C@H]54)nc3c2)c1)S(C)(=O)=O` (atropisomer, axis not shown) [Example 148, N-[(1S)-1-{3-[4-chloro-3-cyclopropanesulfonamido-1-(2,2-difluoroethyl)-1H-indazol-7-yl]-7-[3-(N-methylmethanesulfonamido)phenyl]-4-oxo-3,4-dihydroquinazolin-2-yl}-2-(3,5-difluorophenyl)ethyl]-2-[(2S,4R)-9-(difluoromethyl)-5,5-difluoro-7,8-diazatricyclo[4.3.0.0^2,^4]nona-1(6),8-dien-7-yl]acetamide], the EC50 in series [1] turned out to be 0.28 nM. The same molecule returned a CC50 at 4 days in series [2] of more than 500 nM.
